These results are taken from PubChem BioAssay (NCI).

Test systems include MCF7 breast; NCI/ADR-RES ovarian; T-47D breast; BT-549 breast; MDA-MB-435.
Holding throughout (test): NCI-60 cell line screen, 48 h

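Cells were grown in 96-well plates and exposed to each compound for 48 hours at five concentrations; endpoints were interpolated linearly between bracketing concentrations, or set to the highest concentration if not reached. Abbreviation: GI50, concentration required for 50% inhibition of growth. Definition used: TGI = concentration required for complete inhibition of growth.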

Turning to `C[C@@H]1C=C2C(=O)O[C@@H]3CC[C@H](C1)[C@]23O`, the GI50 with MCF7 breast was 2.5 µM; with NCI/ADR-RES ovarian, 11.9 µM; in the assay with T-47D breast, 3.02 µM; in the assay with BT-549 breast it was 4.4 µM; with MDA-MB-435, 3.39 µM. Besides, the TGI in the assay with MCF7 breast worked out at 13.3 µM; in the assay with NCI/ADR-RES ovarian, 95.8 µM; in the assay on T-47D breast, 15.1 µM; in the assay with BT-549 breast, 17.3 µM; with MDA-MB-435, 13.7 µM.

Turning to `C[C@H]1[C@H](C)CC[C@]2(C(=O)O)CC[C@]3(C)C(=CC[C@@H]4[C@@]5(C)C/C(=C/c6ccco6)C(=O)C(C)(C)[C@@H]5CC[C@]43C)[C@H]12`, the GI50 in the assay with MCF7 breast is 3.17 µM; with NCI/ADR-RES ovarian, 3.84 µM; in the assay with T-47D breast it was 3.79 µM; with BT-549 breast, 4.76 µM; in the assay on MDA-MB-435 it was 6.58 µM. Besides, the TGI in the assay with MCF7 breast was determined as 13 µM; in the assay on NCI/ADR-RES ovarian, 16.1 µM; with T-47D breast, 33.8 µM; in the assay with BT-549 breast, 18.9 µM; in the assay with MDA-MB-435 it was 20.4 µM.

As to `NCCC(O)(P(=O)(O)O)P(=O)(O)O`, the GI50 with MCF7 breast was 37 µM; with NCI/ADR-RES ovarian it was above 100 µM; in the assay on T-47D breast, above 100 µM; in the assay on BT-549 breast, above 100 µM; with MDA-MB-435, above 100 µM. Besides, the TGI with MCF7 breast, with NCI/ADR-RES ovarian, in the assay on T-47D breast, with BT-549 breast and in the assay with MDA-MB-435 was above 100 µM throughout.

In the case of `CCn1cnc2c(Nc3cccc(Cl)c3)nc(N[C@@H]3CCCC[C@@H]3N)nc21`, the GI50 in the assay on MCF7 breast was 0.824 µM; in the assay on NCI/ADR-RES ovarian it was 2.04 µM; with T-47D breast, 1.98 µM; with BT-549 breast it was 1.73 µM; in the assay on MDA-MB-435, 1.42 µM. Moreover, the TGI in the assay on MCF7 breast was 3.23 µM; in the assay on NCI/ADR-RES ovarian, 6.71 µM; in the assay on T-47D breast, 5.16 µM; in the assay on BT-549 breast, 3.73 µM; in the assay on MDA-MB-435 it was 2.82 µM.

With `Cn1cc(C2=C(c3cn(CCN)c4ccccc34)C(=O)NC2=O)c2ccccc21`, the GI50 with MCF7 breast is 3.72 µM; with NCI/ADR-RES ovarian, 10.7 µM; in the assay with T-47D breast it was 5.32 µM; in the assay on BT-549 breast, 7.82 µM; with MDA-MB-435, 3.81 µM. Further, the TGI in the assay with MCF7 breast is above 23.4 µM; with NCI/ADR-RES ovarian, above 25 µM; in the assay with T-47D breast, 14.7 µM; in the assay on BT-549 breast, above 23.8 µM; with MDA-MB-435 it was 19.4 µM.

In the case of `C[C@@]12CCC(=O)C=C1CC[C@H]1C2=CC[C@]2(C)C1CC[C@@]2(C)O` (some centres not stated), the TGI with MCF7 breast, in the assay on NCI/ADR-RES ovarian, with T-47D breast, in the assay on BT-549 breast and in the assay with MDA-MB-435 was above 100 µM throughout.

As to `C=C1C(=O)O[C@H]2[C@H]1CC/C(COC(=O)NCc1c[nH]c3ccc(Cl)cc13)=C\CC[C@@]1(C)O[C@@H]21`, the GI50 is 2.84 µM in the assay with NCI/ADR-RES ovarian, 1.18 µM with BT-549 breast and 1.12 µM in the assay on MDA-MB-435. Besides, the TGI in the assay on NCI/ADR-RES ovarian turned out to be 11.3 µM; in the assay on BT-549 breast it was 2.61 µM; in the assay with MDA-MB-435, 2.48 µM.

`Cc1nc(NC(=O)CCCN2C(=O)c3cccc4cccc(c34)C2=O)sc1C(=O)Nc1cc(C(=O)NCCCN(C)C)n(C)c1`: the GI50 with MCF7 breast, with NCI/ADR-RES ovarian, in the assay with T-47D breast and with MDA-MB-435 was above 100 µM throughout. The TGI with MCF7 breast, in the assay on NCI/ADR-RES ovarian, in the assay on T-47D breast and with MDA-MB-435 was above 100 µM in each case.

In the case of `COc1ccccc1CNCCCN1C(=O)c2ccc3c4c(ccc(c24)C1=O)C(=O)N(CCCNCCCN)C3=O`, the GI50 is 0.123 µM in the assay on MCF7 breast; 1.16 µM in the assay on NCI/ADR-RES ovarian; 0.791 µM in the assay with T-47D breast; 1.44 µM in the assay with BT-549 breast; 0.57 µM in the assay on MDA-MB-435. The TGI with MCF7 breast was 2.43 µM; in the assay on NCI/ADR-RES ovarian it was 5.71 µM; with T-47D breast it was 3.08 µM; in the assay on BT-549 breast, 3.81 µM; in the assay with MDA-MB-435, 2.72 µM.

Take `Cc1ccc(C)c(-c2csc(Nc3ccc(C)c(C)c3)n2)c1`: the GI50 with MCF7 breast is 35.9 µM; with NCI/ADR-RES ovarian, above 100 µM; in the assay on T-47D breast it was above 100 µM; with BT-549 breast, above 100 µM; with MDA-MB-435 it was above 100 µM. Further, the TGI with MCF7 breast, in the assay with NCI/ADR-RES ovarian, in the assay with T-47D breast, in the assay with BT-549 breast and in the assay with MDA-MB-435 was above 100 µM each time.

As to `COc1ccc(NC(=O)c2sc3nc(C)c(C(O)c4ccccc4)cc3c2N)cc1` (configuration not stated), the GI50 in the assay with MCF7 breast was 0.502 µM; with NCI/ADR-RES ovarian, 2.55 µM; in the assay on T-47D breast, 3.36 µM; with BT-549 breast, 6.13 µM; in the assay on MDA-MB-435, 0.291 µM. The TGI in the assay on MCF7 breast came out at 54.2 µM; with NCI/ADR-RES ovarian, 9.03 µM; with T-47D breast, 98.3 µM; with BT-549 breast, 51.6 µM; with MDA-MB-435, 0.971 µM.

For `COc1cc(C(=O)c2cc3c(cc2C)OCO3)cc(OC)c1OC`, the GI50 in the assay with MCF7 breast was 0.0366 µM; in the assay with NCI/ADR-RES ovarian, 0.226 µM; in the assay with T-47D breast it was 0.923 µM; in the assay on BT-549 breast, 0.211 µM. The TGI with MCF7 breast, in the assay with NCI/ADR-RES ovarian, in the assay on T-47D breast and with BT-549 breast was above 100 µM throughout.

Consider `N#Cc1ccnc(N2C(=O)CC[C@H]2C(=O)N(c2cncc(F)c2)[C@H](C(=O)NC2CC(F)(F)C2)c2ccccc2Cl)c1`, for which the GI50 with MCF7 breast was 27 µM; with NCI/ADR-RES ovarian, above 100 µM; with T-47D breast, above 100 µM; with BT-549 breast, above 100 µM; in the assay on MDA-MB-435, 64 µM. Besides, the TGI in the assay with MCF7 breast, in the assay with NCI/ADR-RES ovarian, in the assay with T-47D breast, with BT-549 breast and in the assay on MDA-MB-435 was above 100 µM in each case.

On to `COc1ccc(-c2ccc(C3CC(c4ccc(Cl)cc4)=NN3)o2)c([N+](=O)[O-])c1` (configuration not stated), for which the GI50 in the assay on MCF7 breast, with NCI/ADR-RES ovarian, with T-47D breast, in the assay on BT-549 breast and in the assay on MDA-MB-435 was above 100 µM throughout. In addition, the TGI with MCF7 breast, with NCI/ADR-RES ovarian, with T-47D breast, with BT-549 breast and in the assay with MDA-MB-435 was above 100 µM each time.
